Results published in patent US8816095B2, “Na channels, disease, and related assays and compositions” (Georgetown University, priority 2008, dated 2014).

How the values were obtained:
[1] = tested on: Na+ channel site 2 binding site; assay: [3H]-BTX assay, rat forebrain membranes; details: ± S.E.M., n in brackets
Description: In order to determine if the hermitamides bind to the sodium channel, the natural products, their enantiomers, and the racemic mixture were tested for their ability to displace [^3H]-batrachatoxin. Batrachatoxin is a lipid-soluble neurotoxin that binds to site 2 of the sodium channel. This site is known to overlap with the local anesthetic binding […]. Ligands known to bind to […] of the sodium channel include anesthetics, anticonvulsants and antiarrthymics. As a control, phenyloin, a clinically-used sodium channel blocker that is known to displace [^3H]BTX was also included.
The assays were run at 10 μM and recorded as percent displacement of BTX.
Briefly, rat forebrain membranes (10 mg tissue/well) were incubated with [^3H]-BTX (30-60 Ci/mmol). […] The reaction was terminated by rapid vacuum filtration of the reaction contents onto glass fiber filters. Radioactivity trapped onto the filters was determined and compared with control values to ascertain any interactions of the test compound with the Na^+ channel site 2 binding site. Aconitine (1 μM) was used as a positive control (Sigma Aldrich, Inc., St. Louis, Mo.).

hNav1.5 = target: T1, hNav1.5 (Homo sapiens, UniProt Q14524); assay: Fluorescent (FRET) based sodium channel assay, hNav1.5; assay type: cell-based; details: HEK293 stably transfected with hNav1.5, 10 μM veratridine, read-out: hNav 1.5 IC50
T1 construct: expressed in transfected cells; host or cells: HEK293
T1 sequence (Q14524 whole entry): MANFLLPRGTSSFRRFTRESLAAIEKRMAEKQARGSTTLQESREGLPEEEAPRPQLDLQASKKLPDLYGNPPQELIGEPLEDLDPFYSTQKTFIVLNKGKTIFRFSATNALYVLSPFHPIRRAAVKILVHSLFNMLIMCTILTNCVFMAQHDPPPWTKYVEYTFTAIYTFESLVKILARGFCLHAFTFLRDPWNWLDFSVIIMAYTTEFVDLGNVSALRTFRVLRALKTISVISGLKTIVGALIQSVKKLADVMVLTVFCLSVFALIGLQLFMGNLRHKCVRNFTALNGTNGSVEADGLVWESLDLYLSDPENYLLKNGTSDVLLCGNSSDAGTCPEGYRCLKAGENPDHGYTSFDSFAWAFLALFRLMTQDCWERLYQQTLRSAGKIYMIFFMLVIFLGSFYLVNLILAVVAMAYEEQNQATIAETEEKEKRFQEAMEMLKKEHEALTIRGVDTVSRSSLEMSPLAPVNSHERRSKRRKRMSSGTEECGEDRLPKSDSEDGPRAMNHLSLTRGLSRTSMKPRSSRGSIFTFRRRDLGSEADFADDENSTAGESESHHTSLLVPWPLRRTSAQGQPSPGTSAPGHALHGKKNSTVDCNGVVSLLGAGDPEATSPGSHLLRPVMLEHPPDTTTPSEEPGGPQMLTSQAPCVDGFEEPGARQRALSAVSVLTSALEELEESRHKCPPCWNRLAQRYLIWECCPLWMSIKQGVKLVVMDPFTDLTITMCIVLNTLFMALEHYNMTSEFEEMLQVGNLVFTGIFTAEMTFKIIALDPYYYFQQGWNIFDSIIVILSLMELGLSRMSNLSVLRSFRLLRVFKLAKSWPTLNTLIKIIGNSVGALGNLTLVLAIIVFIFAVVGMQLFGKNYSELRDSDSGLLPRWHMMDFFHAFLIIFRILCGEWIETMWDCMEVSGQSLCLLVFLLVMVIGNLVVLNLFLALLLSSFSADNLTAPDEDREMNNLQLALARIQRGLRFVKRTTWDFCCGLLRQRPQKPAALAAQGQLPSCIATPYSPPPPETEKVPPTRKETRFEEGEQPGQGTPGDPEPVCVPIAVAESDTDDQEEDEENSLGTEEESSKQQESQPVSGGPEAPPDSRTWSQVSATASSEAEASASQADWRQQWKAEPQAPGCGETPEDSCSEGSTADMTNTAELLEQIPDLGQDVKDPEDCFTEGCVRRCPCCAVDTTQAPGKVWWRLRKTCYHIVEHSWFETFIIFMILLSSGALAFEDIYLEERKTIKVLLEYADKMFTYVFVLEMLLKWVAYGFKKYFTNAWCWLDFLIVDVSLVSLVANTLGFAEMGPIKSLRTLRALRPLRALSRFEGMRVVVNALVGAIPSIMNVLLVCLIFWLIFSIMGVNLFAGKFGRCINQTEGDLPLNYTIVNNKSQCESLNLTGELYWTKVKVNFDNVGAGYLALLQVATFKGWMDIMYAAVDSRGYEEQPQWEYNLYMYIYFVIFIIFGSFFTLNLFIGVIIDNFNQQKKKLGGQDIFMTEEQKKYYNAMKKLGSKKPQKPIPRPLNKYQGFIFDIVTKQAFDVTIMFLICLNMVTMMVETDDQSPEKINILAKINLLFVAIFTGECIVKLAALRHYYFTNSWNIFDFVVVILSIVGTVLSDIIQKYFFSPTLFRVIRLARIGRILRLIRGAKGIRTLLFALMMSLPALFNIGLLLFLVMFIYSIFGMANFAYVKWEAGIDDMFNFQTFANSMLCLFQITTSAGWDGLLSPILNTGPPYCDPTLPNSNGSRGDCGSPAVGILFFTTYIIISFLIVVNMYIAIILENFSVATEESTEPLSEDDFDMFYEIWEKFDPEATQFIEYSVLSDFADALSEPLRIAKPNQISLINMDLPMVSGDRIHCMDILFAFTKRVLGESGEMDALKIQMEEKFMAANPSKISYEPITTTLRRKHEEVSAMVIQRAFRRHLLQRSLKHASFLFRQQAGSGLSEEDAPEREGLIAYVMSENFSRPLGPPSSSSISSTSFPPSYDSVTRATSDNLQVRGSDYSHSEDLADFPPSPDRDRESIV
Description: Two isoforms of the channel were examined: hNav1.5, a cardiac sodium channel associated with arrhythmias, and hNav1.7, an isoform found in the peripheral nervous system.
HEK293 cells stably transfected with either hNav1.5 or hNav1.7 were plated at approximately 11,000-20,000 cells/well in flat bottom, poly-D-lysine coated black-wall, clear-bottom, 384-well plates (Becton Dickinson, Bedford, Mass.), and incubated overnight at 37° C. in a 10% CO2 atmosphere in growth medium. Cells were washed with 0.03 mL of Dulbecco's phosphate buffered saline (D-PBS) containing calcium and magnesium. Cells were then incubated with 0.025 mL of a solution containing 10 μM CC2-DMPE and 0.02% pluronic acid in D-PBS with calcium and magnesium; supplemented with 10 mM glucose, and 10 mM Hepes-NaOH, pH 7.4. […] At the end of the incubation period, the plate was placed in a FLIPR TETRA instrument (MDS Analytical Technologies, Sunnyvale Calif.), illuminated at 390-420 nm, and fluorescence emissions were recorded at approximately 1 Hz at 460 and 580 nm. Following a 7 second baseline reading, 0.025 mL of VIPR-S containing 10 μM veratridine for Nav1.5 or 20 μM veratridine for Nav1.7 was added to each well, and the emissions of both dyes were recorded for an additional 33 seconds. […]

human Nav1.2 = target: T2, human Nav1.2 (Homo sapiens, UniProt Q99250); assay: hNav1.2 functional block, whole-cell patch clamp; assay type: cell-based
T2 construct: host or cells: HEK
T2 sequence (Q99250 whole entry): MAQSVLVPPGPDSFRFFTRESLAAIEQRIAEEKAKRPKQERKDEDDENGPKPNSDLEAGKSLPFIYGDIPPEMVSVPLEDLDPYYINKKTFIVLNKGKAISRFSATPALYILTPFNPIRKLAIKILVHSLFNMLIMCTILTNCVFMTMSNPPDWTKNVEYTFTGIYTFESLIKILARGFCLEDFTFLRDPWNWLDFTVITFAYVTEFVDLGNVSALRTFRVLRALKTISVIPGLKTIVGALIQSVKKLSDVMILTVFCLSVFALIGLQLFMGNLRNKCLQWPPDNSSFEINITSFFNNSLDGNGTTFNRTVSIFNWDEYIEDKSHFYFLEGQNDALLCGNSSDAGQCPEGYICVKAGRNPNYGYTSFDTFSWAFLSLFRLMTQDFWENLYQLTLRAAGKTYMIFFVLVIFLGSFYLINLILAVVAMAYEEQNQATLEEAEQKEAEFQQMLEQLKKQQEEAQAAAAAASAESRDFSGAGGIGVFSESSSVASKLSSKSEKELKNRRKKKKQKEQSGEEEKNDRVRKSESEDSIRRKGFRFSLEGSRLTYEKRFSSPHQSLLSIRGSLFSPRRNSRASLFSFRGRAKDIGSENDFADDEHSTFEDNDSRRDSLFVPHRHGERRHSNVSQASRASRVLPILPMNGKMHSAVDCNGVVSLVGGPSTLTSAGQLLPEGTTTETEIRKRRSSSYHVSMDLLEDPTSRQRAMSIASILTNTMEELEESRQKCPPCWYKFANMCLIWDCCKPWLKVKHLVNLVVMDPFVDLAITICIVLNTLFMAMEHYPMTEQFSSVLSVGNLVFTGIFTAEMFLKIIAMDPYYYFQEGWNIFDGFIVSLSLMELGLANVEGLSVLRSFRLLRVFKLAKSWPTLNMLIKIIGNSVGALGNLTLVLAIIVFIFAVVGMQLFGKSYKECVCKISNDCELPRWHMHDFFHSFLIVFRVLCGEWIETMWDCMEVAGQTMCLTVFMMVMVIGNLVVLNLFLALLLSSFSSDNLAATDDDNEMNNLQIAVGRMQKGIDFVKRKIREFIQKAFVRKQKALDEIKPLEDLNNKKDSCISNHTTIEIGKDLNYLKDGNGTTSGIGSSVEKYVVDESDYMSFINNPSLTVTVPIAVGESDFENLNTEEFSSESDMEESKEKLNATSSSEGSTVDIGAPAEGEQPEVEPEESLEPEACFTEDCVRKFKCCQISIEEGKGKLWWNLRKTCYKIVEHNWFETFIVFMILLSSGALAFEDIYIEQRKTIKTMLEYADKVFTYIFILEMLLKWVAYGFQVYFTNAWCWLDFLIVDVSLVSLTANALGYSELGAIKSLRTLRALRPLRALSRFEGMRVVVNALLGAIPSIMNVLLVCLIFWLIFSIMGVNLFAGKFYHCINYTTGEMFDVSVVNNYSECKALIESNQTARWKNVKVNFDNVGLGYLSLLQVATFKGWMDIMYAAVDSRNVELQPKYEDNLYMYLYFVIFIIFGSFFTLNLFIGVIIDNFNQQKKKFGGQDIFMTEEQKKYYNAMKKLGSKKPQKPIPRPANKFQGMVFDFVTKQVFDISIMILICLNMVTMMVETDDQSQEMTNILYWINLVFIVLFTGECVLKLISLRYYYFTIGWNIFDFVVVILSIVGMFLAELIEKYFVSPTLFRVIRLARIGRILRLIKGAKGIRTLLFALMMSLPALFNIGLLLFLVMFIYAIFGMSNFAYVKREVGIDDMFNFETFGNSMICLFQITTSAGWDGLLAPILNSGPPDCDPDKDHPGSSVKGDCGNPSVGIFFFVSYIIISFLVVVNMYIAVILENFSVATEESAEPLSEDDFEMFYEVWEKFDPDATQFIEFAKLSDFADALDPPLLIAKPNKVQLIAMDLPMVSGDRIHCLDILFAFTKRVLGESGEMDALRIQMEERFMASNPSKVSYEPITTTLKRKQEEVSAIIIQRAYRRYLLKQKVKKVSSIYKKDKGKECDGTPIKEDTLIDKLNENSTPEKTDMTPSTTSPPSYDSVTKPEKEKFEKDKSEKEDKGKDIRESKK
Description: Of the 20 analogs tested, six had [^3H]-BTX displacement characteristics much greater then that of phenyloin (Table 7), see Schemes 5, 6, 7 and 8 for the chemical synthesis and structure of the tested compounds. Compound 26, having the greatest [^3H]-BTX displacement at 86% ([…]), was further tested for VGSC functional blocking ability in HEK cells stably expressing Nav1.2 (Table 8).
In addition the functional blocking ability of 9 was tested after site two affinities was confirmed. The potential reason for this increased blocking ability stems from the dansyl addition in a hydrophobically receptive region of the binding site in the VGSC (Anderson, J. D., et al. Mol. Cancer. Ther. 2003, 2, 1149-1154; Lenkowski, P et al. Neuropharmacology, 2007, 52, 1044-1054). This enhanced potency could be due to the dansyl substituent interacting with L1465 and 11469, located in S6 of domain III in the binding site, which are believed to be the source of hydrophobic receptivity 17. The ability to inhibit VGSC currents is an important property and represents functional blocking. The ability of CDPNS to inhibit sodium channel currents was assessed at 10 and 100 μM against human Nav1.2 by patch clamp assay (FIG. 10).
Human embryonic kidney cells (HEK) cells stably expressing human Nav1.2 were a kind gift from Dr. H. A. Hartmann (University of Baltimore, Md., USA) and were grown in DMEM/F12 media (Invitrogen, Corp, CA, USA) supplemented with 10% fetal bovine serum, penicillin (100 U/ml), streptomycin (100 μg/ml) and G418 (500 μg/ml; Sigma, Mo., USA). Cells were grown in a humidified atmosphere of 5% CO2 and 95% air at 37° C.
Sodium currents were recorded using the whole-cell configuration of the patch clamp recording technique with an Axopatch 200 amplifier (Axon Instruments, Foster City, Calif.). All voltage protocols were applied using pCLAMP 9 software (Axon, USA) and a Digidata 1322A (Axon, USA). Currents were amplified and low pass filtered (2 kHz) and sampled at 33 kHz. Borosilicate glass pipettes were pulled using a Brown-Flaming puller (model P87, Sutter Instruments Co, Novato, Calif.) and heat polished to produce electrode resistances of 0.5-1.5 MΩ when filled with the following electrode solution (in mM); CsCl 130, MgCl2 1, MgATP 5, BAPTA 10, HEPES 5 (pH adjusted to 7.4 with CsOH). Cells were plated on glass coverslips and superfused with solution containing the following composition; (in mM) NaCl 130, KCl 4, CaCl2 1, MgCl2 5, HEPES 5, and glucose 5 (pH adjusted to 7.4 with NaOH).
Compound 26 was prepared as 100 mM stock solutions in dimethyl sulfoxide (DMSO) and diluted to desired concentration in perfusion solution. The maximum DMSO concentration used was 0.1% and had no effect on current amplitude. All experiments were performed at room temperature (20-22° C.). After establishing whole-cell, a minimum series resistance compensation of 75% was applied. Sodium currents were elicited by a depolarizing step from a holding potential of −100 mV to +10 mV for a duration of 25 ms at 15 s intervals. Compound 26 was applied after a 3 min control period and continued until a steady state current amplitude was observed. All data represent percentage mean block±standard error of the mean (S.E.M.).

O=C1NC(=O)C(c2ccccc2)(c2ccccc2)N1 [DPH, Diphenylhydantoin, reference compound]
% [3H]-BTX Displacement At 10 μM [1]: 19.78 ± 1.21 (2) % | IC50 (hNav1.5): > 100 µM | % hNaV 1.2 Functional Block (10 μM) (human Nav1.2; Table 8): 10.9 ± 4.2% | % hNaV 1.2 Functional Block (10 μM) (human Nav1.2; Table 9): 10.9 ± 4.2% | % Nav 1.2 Functional Block (10 μm) (human Nav1.2; 10 μm, Table 13): 10.9 ± 4.2%
